Our source for the T/C values is PubChem BioAssay AID330 (DTP/NCI, 2004).

The assay deals with P388 leukemia ip, CD2F1 mice, survival T/C. As to the kind of experiment: NCI In Vivo Anticancer Drug Screen. Data for tumor model P388 Leukemia (intraperitoneal) in CD2F1 (CDF1) mice. The conditions noted are these: endpoint: median survival time, higher = longer survival. The gist of the method:
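Mice carrying the transplanted tumor received test compound or vehicle. Survival was recorded in each group, and the value is the treated-group measurement divided by that of the vehicle-treated control group.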

[1] abbreviates: dose: 50.0 mg/kg/injection, schedule: Q01DX009 (ip), vehicle: saline with Tween-80.
Setting [2] is: dose: 100.0 mg/kg/injection, schedule: Q01DX009 (ip), vehicle: saline with Tween-80.
Where [3] appears, read: dose: 200.0 mg/kg/injection, schedule: Q01DX009 (ip), vehicle: saline with Tween-80.
Where [4] appears, read: dose: 100.0 mg/kg/injection, schedule: Q04DX003 (ip), vehicle: suspension in saline.
Setting [5] is: dose: 25.0 mg/kg/injection, schedule: Q01DX005 (ip), vehicle: saline.
Setting [6] is: dose: 50.0 mg/kg/injection, schedule: Q01DX005 (ip), vehicle: saline.
Setting [7] is: dose: 100.0 mg/kg/injection, schedule: Q01DX005 (ip), vehicle: saline.
The mark [8] stands for this setting: dose: 6.25 mg/kg/injection, schedule: Q01DX005 (ip), vehicle: saline with Tween-80.
Setting [9] is: dose: 12.5 mg/kg/injection, schedule: Q01DX005 (ip), vehicle: saline with Tween-80.
[10] abbreviates: dose: 25.0 mg/kg/injection, schedule: Q01DX005 (ip), vehicle: saline with Tween-80.
The mark [11] stands for this setting: dose: 50.0 mg/kg/injection, schedule: Q01DX005 (ip), vehicle: saline with Tween-80.
Setting [12] is: dose: 100.0 mg/kg/injection, schedule: Q01DX005 (ip), vehicle: saline with Tween-80.
[13] abbreviates: dose: 50.0 mg/kg/injection, schedule: Q01DX009 (ip), vehicle: saline.
Where [14] appears, read: dose: 100.0 mg/kg/injection, schedule: Q01DX009 (ip), vehicle: saline.
The mark [15] stands for this setting: dose: 200.0 mg/kg/injection, schedule: Q01DX009 (ip), vehicle: saline.
Where [16] appears, read: dose: 12.5 mg/kg/injection, schedule: Q01DX009 (ip), vehicle: other.
The mark [17] stands for this setting: dose: 25.0 mg/kg/injection, schedule: Q01DX009 (ip), vehicle: other.
Where [18] appears, read: dose: 50.0 mg/kg/injection, schedule: Q01DX009 (ip), vehicle: other.
The mark [19] stands for this setting: dose: 100.0 mg/kg/injection, schedule: Q01DX009 (ip), vehicle: other.
Where [20] appears, read: dose: 50.0 mg/kg/injection, schedule: Q01DX009 (ip), vehicle: Klucel (hydroxypropylcellulose) (HPC).
Where [21] appears, read: dose: 100.0 mg/kg/injection, schedule: Q01DX009 (ip), vehicle: Klucel (hydroxypropylcellulose) (HPC).
Setting [22] is: dose: 200.0 mg/kg/injection, schedule: Q01DX009 (ip), vehicle: Klucel (hydroxypropylcellulose) (HPC).

Structures are written as SMILES. Where “and” joins values, the source holds several entries; their conditions need not be identical. Identical values can stand only once. Toxic doses and inconclusive results are not listed.

Turning to `CCN(CCN(C)c1ccccc1)Cc1ccccc1`, the T/C runs as follows: under setting [1], 105 % of control; under setting [2], 103 % of control; under setting [3], 105 % of control.

For the compound `COc1cccc(N2N=NCC2O)c1` (stereo unspecified), the T/C was 104 % of control (dose: 60.0 mg/kg/injection, schedule: Q01DX005 (ip), vehicle: saline with Tween-80); 102 % of control (dose: 120.0 mg/kg/injection, schedule: Q01DX005 (ip), vehicle: saline with Tween-80); 104 % of control (dose: 240.0 mg/kg/injection, schedule: Q01DX005 (ip), vehicle: saline with Tween-80).

For `O=C(Oc1ccccc1)C(Cc1ccccc1)NC(=O)C(F)(F)F` (stereo unspecified), the T/C runs as follows: under setting [1], 108 % of control; under setting [2], 99 % of control; under setting [3], 103 % of control.

For `C[O][Sn]([O][Sn]([Cl])([c]1ccccc1)[c]1ccccc1)([c]1ccccc1)[c]1ccccc1`, the T/C is 177 % of control (dose: 50.0 mg/kg/injection, schedule: Q04DX003 (ip), vehicle: saline) and 106 % of control under setting [4].

As to `CS(=O)(=O)OCC(O)C(O)CI` (stereo unspecified), the T/C is 109 % of control under setting [5], 104 % of control under setting [6] and 111 % of control under setting [7].

As for `CCN(CC)CCC(=O)c1ccc(Cl)c2ccccc12`, the T/C is 101 % of control under setting [8]; 93 % of control under setting [9]; 99 % of control and 104 % of control under setting [10]; 109 % of control under setting [11]; 93 % of control under setting [12].

Regarding `CC(=O)CC(C)O` (stereo unspecified), the T/C was 99 % of control under setting [13], 89 % of control under setting [14] and 92 % of control under setting [15].

For the compound `COc1cccc2c1C(=O)c1c(O)c3c(c(O)c1C2=O)CC(O)(c1csc(-c2ccncc2)n1)CC3O` (stereo unspecified), the T/C (dose: 1.56 mg/kg/injection, schedule: Q01DX009 (ip), vehicle: other) was 106 % of control; the T/C (dose: 3.13 mg/kg/injection, schedule: Q01DX009 (ip), vehicle: other) was 105 % of control; the T/C (dose: 6.25 mg/kg/injection, schedule: Q01DX009 (ip), vehicle: other) is 104 % of control; the T/C under setting [16] was 106 % of control; the T/C under setting [17] was 113 % of control and 116 % of control; the T/C under setting [18] is 107 % of control. For the same compound, under setting [19], the T/C is 102 % of control.

`CC(=O)OC1OC(C[Se][As](C)C)C(OC(C)=O)C(OC(C)=O)C1OC(C)=O` (stereo unspecified): the T/C reads like this: under setting [20], 107 % of control; under setting [21], 120 % of control; under setting [22], 114 % of control.

On to `CCCCCCCCCCC(=O)C(=O)c1ccc(O)c(C)c1O`, for which the T/C is 100 % of control under setting [20], 99 % of control under setting [21] and 110 % of control under setting [22].

On to `CCCCN(CC(O)CNc1cc(OC)cc2cccnc12)C(C)CC` (stereo unspecified), for which the T/C under setting [8] is 95 % of control, the T/C under setting [9] was 91 % of control, the T/C under setting [10] is 100 % of control and the T/C under setting [5] was 92 % of control.

Regarding `C(CCSCCCCSCCCCCC1=NCCN1)CCC1=NCCN1`, the T/C was 94 % of control (dose: 50.0 mg/kg/injection, schedule: Q01DX005 (ip), vehicle: Klucel (hydroxypropylcellulose) (HPC)); 95 % of control (dose: 100.0 mg/kg/injection, schedule: Q01DX005 (ip), vehicle: Klucel (hydroxypropylcellulose) (HPC)); 99 % of control (dose: 200.0 mg/kg/injection, schedule: Q01DX005 (ip), vehicle: Klucel (hydroxypropylcellulose) (HPC)).

Consider `OCC1OC(OC2(CO)OC(CO)C(O)C2O)C(O)C(O)C1O` (stereo unspecified), for which the T/C was 98 % of control (dose: 4.0 mg/kg/injection, schedule: Q01DX005 (ip), vehicle: saline); 96 % of control (dose: 8.0 mg/kg/injection, schedule: Q01DX005 (ip), vehicle: saline); 96 % of control (dose: 32.0 mg/kg/injection, schedule: Q01DX005 (ip), vehicle: saline); 97 % of control (dose: 64.0 mg/kg/injection, schedule: Q01DX005 (ip), vehicle: saline); 97 % of control under setting [14]; 99 % of control (dose: 128.0 mg/kg/injection, schedule: Q01DX005 (ip), vehicle: saline). The T/C runs as follows: under setting [15], 97 % of control; (dose: 256.0 mg/kg/injection, schedule: Q01DX005 (ip), vehicle: saline) 98 % of control; (dose: 400.0 mg/kg/injection, schedule: Q01DX009 (ip), vehicle: saline) 98 % of control; (dose: 512.0 mg/kg/injection, schedule: Q01DX005 (ip), vehicle: saline) 100 % of control; (dose: 1024.0 mg/kg/injection, schedule: Q01DX005 (ip), vehicle: saline) 106 % of control; (dose: 2048.0 mg/kg/injection, schedule: Q01DX005 (ip), vehicle: saline) 108 % of control.

Turning to `COc1ccc2cc1Oc1ccc(cc1)C[C@H]1c3cc(c(OC)cc3CCN1C)Oc1c(OC)c(OC)cc3c1[C@H](C2)N(C)CC3`, the T/C under setting [16] is 94 % of control and 95 % of control; the T/C under setting [17] was 100 % of control and 97 % of control; the T/C (dose: 25.0 mg/kg/injection, schedule: Q04DX003 (ip), vehicle: suspension in saline) is 98 % of control; the T/C under setting [18] is 100 % of control and 97 % of control; the T/C (dose: 50.0 mg/kg/injection, schedule: Q04DX003 (ip), vehicle: suspension in saline) was 88 % of control; the T/C under setting [19] was 103 % of control. The T/C was 89 % of control under setting [4] and 87 % of control (dose: 200.0 mg/kg/injection, schedule: Q04DX003 (ip), vehicle: suspension in saline).

On to `O=[N+]([O-])c1ccc(COc2ccccc2)cc1`, for which the T/C was 104 % of control (dose: 100.0 mg/kg/injection, schedule: Q01DX001 (ip), vehicle: saline); 113 % of control (dose: 200.0 mg/kg/injection, schedule: Q01DX001 (ip), vehicle: saline); 124 % of control (dose: 400.0 mg/kg/injection, schedule: Q01DX001 (ip), vehicle: saline).

For `CCCn1c2ccccc2c2c(C)c3cnccc3c(C)c21`, the T/C (dose: 12.5 mg/kg/injection, schedule: Q04DX002 (ip), vehicle: saline with Tween-80) was 100 % of control; the T/C (dose: 25.0 mg/kg/injection, schedule: Q04DX002 (ip), vehicle: saline with Tween-80) was 97 % of control; the T/C (dose: 50.0 mg/kg/injection, schedule: Q04DX002 (ip), vehicle: saline with Tween-80) was 94 % of control; the T/C (dose: 100.0 mg/kg/injection, schedule: Q04DX002 (ip), vehicle: saline with Tween-80) is 105 % of control.

On to `NC12CC3CC(CC(C3)C1)C2`, for which the T/C under setting [10] was 97 % of control, the T/C under setting [11] was 92 % of control and the T/C under setting [12] was 88 % of control.

In the case of `Cc1nn(C(N)=S)c(C)c1N=Nc1ccc(O)cc1`, the T/C reads like this: under setting [11], 103 % of control; under setting [12], 103 % of control; (dose: 200.0 mg/kg/injection, schedule: Q01DX005 (ip), vehicle: saline with Tween-80) 107 % of control.

For the compound `COC(=O)c1nc(Cl)[nH]c1CC#N`, the T/C by setting is: under setting [6], 103 % of control; under setting [7], 112 % of control; (dose: 200.0 mg/kg/injection, schedule: Q01DX005 (ip), vehicle: saline) 105 % of control.

Consider `Cc1nc(=O)oc(NC(C)C)c1Cl`, for which the T/C is, setting by setting: (dose: 25.0 mg/kg/injection, schedule: Q01DX009 (ip), vehicle: saline with Tween-80) 100 % of control and 107 % of control; under setting [1], 106 % of control and 95 % of control; under setting [13], 110 % of control; under setting [2], 113 % of control and 97 % of control; under setting [14], 103 % of control; under setting [3], 99 % of control and 116 % of control.

For `N#CCc1ccc(C(C#N)C(=O)CCC(=O)C(C#N)c2ccc(CC#N)cc2)cc1` (stereo unspecified), the T/C is, setting by setting: under setting [11], 100 % of control; under setting [12], 100 % of control.
